From patent publication US20250313563A1, “GLYCOGEN SYNTHASE KINASE 3 INHIBITORS AND USES THEREOF” (The Broad Institute, Inc., priority 2022, published 2025)
Like-named read-outs stand apart in the source and are kept apart here.

Columns and labels:
[1] = molecular target: GSK3α (GST-full length GSK3α) (Homo sapiens (Human), UniProt P49840); experiment: GSK3α TR-FRET kinase assay; assay type: biochemical
Summary of the method: (§1)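 Full-length GST-tagged human enzyme (1 nM) is exposed to test compound for 30 min before substrates are added. Phosphorylation of a primed biotinylated glycogen synthase peptide proceeds 100 min at room temperature at low ATP (4 μM α; 2 μM β) or high ATP (1 mM). Product is quantified by TR-FRET.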

[2] = molecular target: GSK3b (GST-full length GSK3b) (Homo sapiens (Human), UniProt P49841); experiment: GSK3b TR-FRET kinase assay; assay type: biochemical
Summary of the method: as §1

[3] = 1 nM GSK3α, 4 μM ATP, 30 minute preincubation, read-out: GSK3-A TR-FRET BIOCHEMICAL (TR-FRET), IC50
[4] = read-out: GSK3-A (TR-FRET 1 mM ATP), GMean, IC50, 1 mM ATP, geometric mean
[5] = 1 nM GSK3b, 2 μM ATP, 30 minute preincubation, read-out: GSK3-B TR-FRET BIOCHEMICAL (TR-FRET), IC50
[6] = read-out: GSK3-B (TR-FRET 1 mM ATP), GMean, IC50, 1 mM ATP, geometric mean
[7] = 1 nM GSK3α, 4 μM ATP, 30 minute preincubation, Table 16, read-out: GSK3-A TR-FRET BIOCHEMICAL (TR-FRET), IC50
[8] = 1 nM GSK3b, 2 μM ATP, 30 minute preincubation, Table 16, read-out: GSK3-B TR-FRET BIOCHEMICAL (TR-FRET), IC50
[9] = 1 nM GSK3α, 4 μM ATP, 30 minute preincubation, Table 16, read-out: GSK3-A TR-FRET BIOCHEMICAL (TR-FRET)
[10] = 1 nM GSK3b, 2 μM ATP, 30 minute preincubation, Table 16, read-out: GSK3-B TR-FRET BIOCHEMICAL (TR-FRET)

Sequence of GSK3b (GST-full length GSK3b) (P49841 whole entry): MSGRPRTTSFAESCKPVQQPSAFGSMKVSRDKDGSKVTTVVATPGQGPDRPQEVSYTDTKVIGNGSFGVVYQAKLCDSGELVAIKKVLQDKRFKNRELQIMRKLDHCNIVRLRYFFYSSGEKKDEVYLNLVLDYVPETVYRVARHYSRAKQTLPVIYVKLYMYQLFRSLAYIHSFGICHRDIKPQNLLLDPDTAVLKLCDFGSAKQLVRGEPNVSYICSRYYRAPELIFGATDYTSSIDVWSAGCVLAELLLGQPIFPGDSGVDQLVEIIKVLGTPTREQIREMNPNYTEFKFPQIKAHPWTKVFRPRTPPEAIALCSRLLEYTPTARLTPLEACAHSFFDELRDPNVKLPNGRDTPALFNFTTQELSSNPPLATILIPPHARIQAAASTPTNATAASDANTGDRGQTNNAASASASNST
Sequence of GSK3α (GST-full length GSK3α) (P49840 whole entry): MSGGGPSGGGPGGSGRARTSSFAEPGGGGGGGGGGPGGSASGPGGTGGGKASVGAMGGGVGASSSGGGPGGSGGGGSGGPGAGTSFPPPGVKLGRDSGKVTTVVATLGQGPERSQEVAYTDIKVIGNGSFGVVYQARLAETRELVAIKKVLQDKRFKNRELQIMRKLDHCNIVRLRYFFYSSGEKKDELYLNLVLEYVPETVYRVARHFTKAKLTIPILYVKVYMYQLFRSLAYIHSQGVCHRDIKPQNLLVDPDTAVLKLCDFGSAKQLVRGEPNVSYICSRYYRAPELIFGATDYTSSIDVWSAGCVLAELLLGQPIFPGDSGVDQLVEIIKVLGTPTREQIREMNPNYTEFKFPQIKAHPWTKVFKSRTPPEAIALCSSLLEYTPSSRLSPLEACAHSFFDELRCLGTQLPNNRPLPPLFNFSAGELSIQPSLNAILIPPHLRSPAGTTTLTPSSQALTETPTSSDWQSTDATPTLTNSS

CC[C@@]1(c2cccc(C(F)(F)F)c2)C2=C(CC3(CCC3)NC2=O)Nc2n[nH]cc21 [Compound 914308]
IC50 [1, 3]: ≤ 100 nM | IC50 [1, 4]: 100 to 1000 nM | IC50 [2, 5]: ≤ 100 nM | IC50 [2, 6]: 1000 to 5000 nM

CCC1(c2cccc(-c3ccnc(C)c3)c2)C2=C(CC(C)(C)NC2=O)Nc2n[nH]cc21 (stereo not shown) [Compound 914930]
IC50 [1, 3]: ≤ 100 nM | IC50 [2, 5]: 1000 to 5000 nM

CCC1(c2cccc(-c3ccnn3C)c2)C2=C(CC(C)(C)NC2=O)Nc2n[nH]cc21 (stereo not shown) [Compound 914971]
IC50 [1, 3]: ≤ 100 nM | IC50 [2, 5]: 100 to 1000 nM

CC[C@@]1(c2cccc(N(C)c3cnccn3)c2)C2=C(CC(C)(C)CC2=O)Nc2n[nH]cc21 [Compound 915316]
IC50 [1, 7]: ≤ 100 nM | IC50 [2, 8]: ≤ 100 nM

CC[C@]1(c2cccc(N(C)c3cnccn3)c2)C2=C(CC(C)(C)CC2=O)Nc2n[nH]cc21 [Compound 915340]
IC50 [1, 7]: 100 to 1000 nM | IC50 [2, 8]: 1000 to 5000 nM

CC[C@@]1(c2cccc(N(C)c3cncnc3)c2)C2=C(CC(C)(C)CC2=O)Nc2n[nH]cc21 [Compound 915400]
IC50 [1, 7]: ≤ 100 nM | IC50 [2, 8]: ≤ 100 nM

CC[C@]1(c2cccc(N(C)c3cncnc3)c2)C2=C(CC(C)(C)NC2=O)Nc2n[nH]cc21 [Compound 915401]
IC50 [1, 7]: 100 to 1000 nM | IC50 [2, 8]: 1000 to 5000 nM

CCC1(c2cccc(N3CCCc4ncccc43)c2)C2=C(CC(C)(C)CC2=O)Nc2n[nH]cc21 (stereo not shown) [Compound 917076]
IC50 [1, 7]: ≤ 100 nM | IC50 [2, 8]: ≤ 100 nM

CCC1(c2cccc(N3CCCc4ncccc43)c2)C2=C(CC(C)(C)CC2=O)Nc2n[nH]cc21 (stereo not shown) [Compound 917079]
IC50 [1, 7]: 100 to 1000 nM | IC50 [2, 8]: 1000 to 5000 nM

CC1(C)CC(=O)C2=C(C1)Nc1n[nH]cc1C21CC(c2ccccc2)C1 (stereo not shown) [Compound 917081]
IC50 [1, 9]: ≤ 100 nM | IC50 [2, 10]: ≤ 100 nM

CC1(C)CC(=O)C2=C(C1)Nc1n[nH]cc1C21CC(c2ccccc2)C1 (stereo not shown) [Compound 917082]
IC50 [1, 9]: ≤ 100 nM | IC50 [2, 10]: ≤ 100 nM

CCC1(c2cccc(N(c3cccnc3)C(C)C)c2)C2=C(CC(C)(C)CC2=O)Nc2n[nH]cc21 (stereo not shown) [Compound 917086]
IC50 [1, 4]: 100 to 1000 nM | IC50 [2, 6]: 1000 to 5000 nM

CC[C@]1(c2cccc(N(c3cccnc3)C(C)C)c2)C2=C(CC(C)(C)CC2=O)Nc2n[nH]cc21 [Compound 917087]
IC50 [1, 7]: 100 to 1000 nM | IC50 [2, 8]: 1000 to 5000 nM

CCN(c1cccnc1)c1cccc(C2(CC)C3=C(CC(C)(C)CC3=O)Nc3n[nH]cc32)c1 (stereo not shown) [Compound 917088]
IC50 [1, 7]: ≤ 100 nM | IC50 [1, 4]: 100 to 1000 nM | IC50 [2, 8]: ≤ 100 nM | IC50 [2, 6]: 1000 to 5000 nM

CCN(c1cccnc1)c1cccc(C2(CC)C3=C(CC(C)(C)CC3=O)Nc3n[nH]cc32)c1 (stereo not shown) [Compound 917089]
IC50 [1, 7]: 100 to 1000 nM | IC50 [2, 8]: 1000 to 5000 nM

CC1(C)CC(=O)C2=C(C1)Nc1n[nH]cc1[C@]21COC2(CCC2)C1 [Compound 917128]
IC50 [1, 3]: 100 to 1000 nM | IC50 [2, 5]: 100 to 1000 nM

CC1(C)CC(=O)C2=C(C1)Nc1n[nH]cc1[C@@]21COC2(CCC2)C1 [Compound 917129]
IC50 [1, 3]: 100 to 1000 nM | IC50 [2, 5]: 100 to 1000 nM

CCCS(=O)(=O)c1cccc(C2(CC)C3=C(CC(C)(C)CC3=O)Nc3n[nH]cc32)c1 (stereo not shown) [Compound 917131]
IC50 [1, 7]: ≤ 100 nM | IC50 [2, 8]: ≤ 100 nM

CC1(C)CC2=C(C(=O)C1F)[C@]1(CC[C@H](C(F)(F)F)CC1)c1c[nH]nc1N2 (stereo partly shown) [Compound 917133]
IC50 [1, 9]: ≤ 100 nM | IC50 [2, 10]: ≤ 100 nM

CC1(C)CC2=C(C(=O)C1F)[C@]1(CC[C@@H](C(F)(F)F)CC1)c1c[nH]nc1N2 (stereo partly shown) [Compound 917134]
IC50 [1, 9]: ≤ 100 nM | IC50 [2, 10]: 100 to 1000 nM

CC1(C)CC(=O)C2=C(Nc3n[nH]cc3[C@]23CC[C@@H](C(F)(F)F)CC3)C1F (stereo partly shown) [Compound 917135]
IC50 [1, 9]: ≤ 100 nM | IC50 [2, 10]: 100 to 1000 nM

CC1(C)CC(=O)C2=C(Nc3n[nH]cc3[C@]23CC[C@H](C(F)(F)F)CC3)C1F (stereo partly shown) [Compound 917136]
IC50 [1, 9]: ≤ 100 nM | IC50 [2, 10]: 100 to 1000 nM

CC1(C)CC(=O)C2=C(C1)Nc1n[nH]cc1C21CCCN(S(=O)(=O)C2CC2)CC1 (stereo not shown) [Compound 917137]
IC50 [1, 9]: ≤ 100 nM | IC50 [2, 10]: ≤ 100 nM

Cn1ccc(S(=O)(=O)N2CCCC3(CC2)C2=C(CC(C)(C)CC2=O)Nc2n[nH]cc23)n1 (stereo not shown) [Compound 917138]
IC50 [1, 9]: ≤ 100 nM | IC50 [2, 10]: ≤ 100 nM

CC1(C)CC(=O)C2=C(C1)Nc1n[nH]cc1C21CN(S(=O)(=O)C2CCCC2)C1 [Compound 917139]
IC50 [1, 9]: ≤ 100 nM | IC50 ([1]; GSK3-A (TR-FRET 1 mM ATP), GMean, IC50, 1 mM ATP, geometric mean): 100 to 1000 nM | IC50 [2, 10]: ≤ 100 nM | IC50 ([2]; GSK3-B (TR-FRET 1 mM ATP), GMean, IC50, 1 mM ATP, geometric mean): 100 to 1000 nM

COc1cccc(S(=O)(=O)N2CCCC3(CC2)C2=C(CC(C)(C)CC2=O)Nc2n[nH]cc23)c1 (stereo not shown) [Compound 917140]
IC50 [1, 9]: ≤ 100 nM | IC50 [2, 10]: 100 to 1000 nM
